US10526347B2, “3-(3H-imidazo[4,5-B]pyridin-2-yl)-1H-pyrazolo[3,4-B]pyridine and therapeutic uses thereof” (Samumed, LLC, priority 2014, dated 2020)

Columns and labels:
[1] = system: Wnt activity (SW480 colon carcinoma cells stably expressing the Sp5-Luc reporter gene); assay: Sp5-Luc reporter gene screening assay for Wnt activity; format: cell-based; settings: Homo sapiens
Method in brief: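 The SW480 cells carry a lentiviral luciferase reporter driven by a Sp5 promoter with eight TCF/LEF sites. They were plated at 10,000 cells/well in 10% FCS overnight, then pinned with 50 nl of 3-fold dilutions (10 mM top source concentration) into 50 μl.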

[2] = system: primary human fibroblasts derived from IPF patients (LL29 cells); assay: Inhibition of the fibrotic process in TGF-β1 treated IPF patient fibroblasts (αSMA staining); format: cell-based; settings: Fibroblast, 96 h, LL29 cells treated with TGF-β1 (20 ng/mL), 4 days, read-out: Inhibition of fibrosis EC50
Excerpt: The above synthesized compounds were screened using primary human fibroblasts (derived from IPF patients) treated with TGF-β1 to determine their ability to inhibit the fibrotic process.
Primary human fibroblasts derived from IPF patients (LL29 cells) [^1Xiaoqiu Liu, et. al., “Fibrotic Lung Fibroblasts Show Blunted Inhibition by cAMP Due to Deficient cAMP Response Element-Binding Protein Phosphorylation”, Journal of Pharmacology and Experimental Therapeutics (2005), 315(2), 678-687; ^2Watts, K. L., et. al., “RhoA signaling modulates cyclin D1 expression in human lung fibroblasts; implications for idiopathic pulmonary fibrosis”, Respiratory Research (2006), 7(1), 88] were obtained from American Type Culture Collection (ATCC) and expanded in F12 medium supplemented with 15% Fetal Bovine Serum and Penicillin/Streptomycin.
Each compound was dissolved in DMSO as a 10 mM stock and used to prepare compound source plates. Serial dilution (1:2, 11-point dose-response curves from 10 μM to 1.87 nM) and compound transfer was performed using the ECHO 550 (Labcyte, Sunnyvale, Calif.) into 384-well clear bottom assay plates (Greiner Bio-One) with appropriate DMSO backfill for a final DMSO concentration of 0.1%. LL29 cells were plated at 1,500 cells/well in 80 μl/well F12 medium supplemented with 1% Fetal Bovine Serum. One hour after addition of the cells, TGF-β1 (Peprotech; 20 ng/mL) was added to the plates to induce fibrosis (ref. 1 and 2 above). Wells treated with TGF-β1 and containing DMSO were used as controls. Cells were incubated at 37° C. and 5% CO2 for 4 days. Following incubation for 4 days, SYTOX green nucleic acid stain (Life Technologies [Thermo Fisher Scientific]) was added to the wells at a final concentration of 1 uM and incubated at room temperature for 30 min. Cells were then fixed using 4% formaldehyde (Electron Microscopy Sciences), washed 3 times with PBS followed by blocking and permeabilization using 3% Bovine Serum Albumin (BSA; Sigma) and 0.3% Triton X-100 (Sigma) in PBS. Cells were then stained with antibody specific to α-smooth muscle actin (αSMA; Abcam) (ref. 1 and 2 above) in 3% Bovine Serum Albumin (BSA; Sigma) and 0.3% Triton X-100 (Sigma) in PBS, and incubated overnight at 4° C. Cells were then washed 3 times with PBS, followed by incubation with Alexa Flor-647 conjugated secondary antibody (Life Technologies [Thermo Fisher Scientific]) and DAPI at room temperature for 1 hour. Cells were then washed 3 times with PBS and plates were sealed for imaging. αSMA staining was imaged by excitation at 630 nm and emission at 665 nm and quantified using the Compartmental Analysis program on the CellInsight CX5 (Thermo Scientific). Dead or apoptotic cells were excluded from analysis based on positive SYTOX green staining. % of total cells positive for αSMA were counted in each well and normalized to the average of 11 wells treated with TGF-β1 on the same plate using Dotmatics' Studies Software. The normalized averages (fold change over untreated) of 3 replicate wells for each compound concentration were used to create dose-responses curves and EC50 values were calculated using non-linear regression curve fit in the Dotmatics' Studies Software. The EC50 values are reported.

Molecule `CCNCc1cncc(-c2cnc3[nH]nc(-c4nc5c(-c6ccccn6)ccnc5[nH]4)c3c2)c1` [Compound 114, N-((5-(3-(7-(Pyridin-2-yl)-3H-imidazo[4,5-b]pyridin-2-yl)-1H-pyrazolo[3,4-b]pyridin-5-yl)pyridin-3-yl)methyl)ethanamine] has an IC50 [1] of over 10 µM and an EC50 [2] of at least 9.99 µM.

Work on `Cc1ccc(-c2ccnc3[nH]c(-c4n[nH]c5ncc(-c6cncc(CN7CCCCC7)c6)cc45)nc23)s1` [Compound 351, 3-(7-(5-Methylthiophen-2-yl)-3H-imidazo[4,5-b]pyridin-2-yl)-5-(5-(piperidin-1-ylmethyl)pyridin-3-yl)-1H-pyrazolo[3,4-b]pyridine] yielded an IC50 [1] of over 10 µM and an EC50 [2] of at least 9.99 µM.

Work on `Fc1cccc(-c2ccnc3[nH]c(-c4n[nH]c5ncc(-c6ccccn6)cc45)nc23)c1` [Compound 925, 3-(7-(3-Fluorophenyl)-3H-imidazo[4,5-b]pyridin-2-yl)-5-(pyridin-2-yl)-1H-pyrazolo[3,4-b]pyridine] yielded an IC50 [1] of over 10 µM and an EC50 [2] of at least 9.99 µM.

In the case of `Cc1ccc(-c2ccnc3[nH]c(-c4n[nH]c5ncc(-c6cncc(NC(=O)C7CCCC7)c6)cc45)nc23)s1` [Compound 357, N-(5-(3-(7-(5-Methylthiophen-2-yl)-3H-imidazo[4,5-b]pyridin-2-yl)-1H-pyrazolo[3,4-b]pyridin-5-yl)pyridin-3-yl)cyclopentanecarboxamide], the IC50 [1] is reported as 0.008 µM and the EC50 [2] is reported as 1.39 µM.

Molecule `FC1(F)CCN(Cc2cncc(-c3cnc4[nH]nc(-c5nc6c(N7CCCCC7)ccnc6[nH]5)c4c3)c2)C1` [Compound 157, 5-(5-((3,3-Difluoropyrrolidin-1-yl)methyl)pyridin-3-yl)-3-(7-(piperidin-1-yl)-3H-imidazo[4,5-b]pyridin-2-yl)-1H-pyrazolo[3,4-b]pyridine] has an IC50 [1] of 4.21 µM and an EC50 [2] of at most 0.009 µM.

`c1cncc(-c2ccnc3[nH]c(-c4n[nH]c5ncc(-c6cncc(CN7CCCCC7)c6)cc45)nc23)c1` [Compound 78, 5-(5-(Piperidin-1-ylmethyl)pyridin-3-yl)-3-(7-(pyridin-3-yl)-3H-imidazo[4,5-b]pyridin-2-yl)-1H-pyrazolo[3,4-b]pyridine] showed an IC50 [1] of over 10 µM and an EC50 [2] of at least 9.99 µM.

Molecule `O=C(Nc1cncc(-c2cnc3[nH]nc(-c4nc5c(N6CCCCC6)ccnc5[nH]4)c3c2)c1)C1CC1` [Compound 151, N-(5-(3-(7-(Piperidin-1-yl)-3H-imidazo[4,5-b]pyridin-2-yl)-1H-pyrazolo[3,4-b]pyridin-5-yl)pyridin-3-yl)cyclopropanecarboxamide] has an IC50 [1] of 0.247 µM and an EC50 [2] of 0.414 µM.

`c1cc(-c2ccoc2)c2nc(-c3n[nH]c4ncc(-c5cncc(CNCC6CCCC6)c5)cc34)[nH]c2n1` [Compound 282, 1-Cyclopentyl-N-((5-(3-(7-(furan-3-yl)-3H-imidazo[4,5-b]pyridin-2-yl)-1H-pyrazolo[3,4-b]pyridin-5-yl)pyridin-3-yl)methyl)methanamine] was tested, and the IC50 [1] was over 10 µM and the EC50 [2] was at least 9.99 µM.

`Cc1ccncc1-c1cnc2[nH]nc(-c3nc4c(-c5ccncc5)ccnc4[nH]3)c2c1` [Compound 91, 5-(4-Methylpyridin-3-yl)-3-(7-(pyridin-4-yl)-3H-imidazo[4,5-b]pyridin-2-yl)-1H-pyrazolo[3,4-b]pyridine] gave an IC50 [1] of over 10 µM and an EC50 [2] of at least 9.99 µM.

Molecule `CCNCc1cncc(-c2cnc3[nH]nc(-c4nc5c(-c6ccoc6)ccnc5[nH]4)c3c2)c1` [Compound 264, N-((5-(3-(7-(Furan-3-yl)-3H-imidazo[4,5-b]pyridin-2-yl)-1H-pyrazolo [3,4-b]pyridin-5-yl)pyridin-3-yl)methyl)ethanamine] has an IC50 [1] of over 10 µM and an EC50 [2] of at most 0.009 µM.
